From patent publication US7910692B2, “Immunogenic peptides and methods of use” (The United States of America as represented by the …, priority 2006, dated 2011)

Key:
[1] = biological target: T1, HLA-A2 molecules (Homo sapiens, UniProt P04439, D140Y/D185E/D98H/E176V/E277Q/G131W/G231S/I119V/I121R/I166T/I218V/L300P/L318F/N151K/N90K/P208A/P217A/Q86G/Q94H/R138H/R169H/T345S); assay: Peptide binding to HLA-A2: upregulation of HLA-A2 expression on T2 cells, flow cytometry; settings: for T2 binding, mean fluorescence intensity: T2 cells; for binding to HLA-A2 compared with native peptides: all concentrations, 0 to 25 μg/ml (FIG. 1A)
T1 construct: expressed in transfected cells; host or cells: T2 cells (provided by Dr. Peter Cresswell)
Protocol: The primary amino acid sequence of human PAGE4 was analyzed for consensus motifs for novel HLA-A2 binding peptides. Two 10-mer peptides (P16-25 designated as P16 and P59-68 designated as P59) and one 9-mer peptide (P84-92 designated as P84) were identified and evaluated (Table 1). […] For this reason, five different analogues of native peptides were synthesized and were investigated for their binding ability to HLA-A2-positive T2 cells along with the native P16, P59 and P84 peptides. A MUC-1 peptide and a CEA HLA-A3 binding peptide (CAP-7) were used as a positive and negative control, respectively (Tsang et al., J Natl Cancer Inst 1995; 87:982-90).

[2] = biological target: T2, peptide-HLA-A2 complexes (Homo sapiens, UniProt P04439, D140Y/D185E/D98H/E176V/E277Q/G131W/G231S/I119V/I121R/I166T/I218V/L300P/L318F/N151K/N90K/P208A/P217A/Q86G/Q94H/R138H/R169H/T345S); assay: Stability of peptide-HLA-A2 complexes on T2 cells after brefeldin A block; assay type: binding; settings: 8-hour observation period; 12.5 μg/ml (FIG. 1B)
T2 construct: expressed in transfected cells; host or cells: T2 cells (provided by Dr. Peter Cresswell)
Protocol: FIGS. 1A and 1B are line graphs showing the binding of native PAGE4 peptides and their agonist peptides to HLA-A2 molecules. Peptides were analyzed for binding to T2 cell line as described in Example 1. For the results presented in FIG. 1A, peptides were used at concentrations of 0 to 25 μg/ml. P16 peptide (∘), P16-1 (●), P16-2 (▴), P84 (□) and P84-1 (▪), positive control (MUC-1 peptide) (+) and negative control (HLA-A3 binding peptide) (X). Results are expressed in mean fluorescence intensity (MFI). FIG. 1B presents a comparison of the stability of HLA-A2 peptide complexes of PAGE4 native and agonist peptides. T2 cells were incubated overnight with P16 peptide (∘), P16-1 (●), P16-2 (▴), P84 (□) and P84-1 (▪) peptides at a concentration of 12.5 μg/ml and then were washed free of unbound peptide and incubated with brefeldin A to block delivery of new class 1 molecules to the cell surface. At the indicated times, cells were stained for the presence of surface peptide-HLA-A2 complexes. Results are expressed in relative percentage of binding compared with 100% at time 0.
The analogues of P16 were designated P16-1 and P16-2, and the analogue of P84 was designated as P84-1. These peptides bound to HLA-A2 at higher levels than their native peptides. Studies were then conducted to examine the ability of these peptides to bind HLA-A2 at various concentrations. […] Studies were then undertaken to examine the stability of the peptide-MHC complex for the peptides P16, P84, P16-1, P16-2 and P84-1. Each peptide was incubated with T2 cells overnight, the unbound peptides were washed off, and the cells were then incubated with Brefeldin A to block delivery of new class I molecules to the cell surface. Cells were analyzed for the presence of peptide-HLA-A2 complexes at various time points.

[3] = system: T-A-P16 cells; assay: Cytokine production by T-A-P16 cells stimulated with native and agonist P16 peptides (FIG. 2); assay type: cell-based, human; settings: vs native P16 or P16-2 peptide; 12.5 ul/ml; effector-to-APC 1:3; 24-hour supernatants (FIG. 2)
Protocol: FIG. 2 is a set for bar graphs illustrating the ability of autologous B cells pulsed with native and agonist P16 peptides to induce IFN-γ, Lymphotactin, Granzyme B, TNF-α and IL-2 production by T cell line derived from the native peptide (T-A-P16). T-A-P16 cells were used as effectors at in vitro stimulation (IVS-4). T cells were stimulated with irradiated autologous B cells pulsed with different PAGE4 analogues at a concentration of 12.5 ul/ml, and an effector-to-APC ratio of 1:3. Twenty-four-hour culture supernatants were collected and screened for the secretion of IFN-γ, Lymphotactin, Granzyme B, TNF-α and IL-2 using ELISA assay.
Detection of Cytokines: Supernatants of T cells stimulated for […] with peptide-pulsed autologous EBV-transformed B cells, in IL-2-free medium at various peptide concentrations, were screened for secretion of IFN-γ using an ELISA kit (BioSource International, Camarillo, Calif.) and lymphotactin using an ELISA assay (36). Granzyme B, TNF-α and IL-2 were determined by using a Cytokines and Chemokines-Multiplex Kit (Meso Scale Discovery, Geitherburg, Md.). The results were expressed in pg/ml.
Studies were then undertaken to examine the ability of the P16, P16-1, P16-2 peptides to activate the T-A-P16 cells, which were generated with the P16 native peptide. […] The P16-1 agonist was thus chosen for further study.

[4] = system: T-B-P16-1 cells; assay: CD107a mobilization assay; assay type: cell-based, human; settings: T-B-P16-1 cells with T2 cells pulsed with 12.5 μg/ml peptide; 5 hours (FIG. 3)
Protocol: The expression of CD107a on the cell surface of CD8+ T cells and correlation with cytotoxic activity by PAGE4-specific T-cell line (T-B-P16-1) against P16-1 or P16 pulsed T2 cells. 0.5×10^6 effector cells/ml were incubated (FIG. 3a) alone, (FIG. 3b) with T2 cells without peptide, (FIG. 3c) with T2 cells pulsed with 12.5 μg/ml of P16 peptide, or (FIG. 3d) with T2 cells pulsed with 12.5 μg/ml of P16-1 peptide. Results are expressed in % of CD107a positive and CD8 positive cells. Numbers of the upper right are % of specific lysis±SD.
CD107a mobilization assay: The CD107a mobilization assay was performed as previously described (Rubio et al., Nat Med 2003; 9:1377-82). […] Samples were then fixed and the expression of CD107a on the cell surface of CD8^+ T cells was analyzed by flow cytometry.
In order to determine CTL degranulation which is a requisite process of perforin-granzyme mediated killing by activated CD8+ T cells, CD107a mobilization to the cell surface of CD8+ T cells was examined following activation with P16 or P16-1 peptides in addition to CTL assays. T-B-P16-1 cells were incubated with P16 native or P16-1 agonist peptide-pulsed T2 cells for 5 hours in the presence of monensin and analyzed for CD107a mobilization by flow cytometric analysis (FIG. 3). […]

[5] = system: LNCaP cells; assay: Cold target inhibition assay; assay type: cell-based, human; settings: peptide-pulsed (12.5 μg/ml) unlabeled T2 cells; LNCaP:T2 1:10; E:T 15:1 (FIG. 5A)
Protocol: For the results presented in FIG. 5A, ^111In labeled LNCaP cells and unlabeled T2 cells were used at a ratio of 1:10. T2 cells were incubated with or without P16-1 peptide (12.5 μg/ml) in serum-free medium for 2 hours at 37° C. prior to the addition of the T-A-P16-1 cells. For the results presented in FIG. 5B, anti-HLA-A2 antibody (10 μg/ml and 50 μg/ml) or 110 μg/ml of control IgG antibody were added to ^111In labeled LNCaP cells for 1 hour at 37° C. prior to the addition of the T-A-P16-1 cells. Results are expressed in percent specific lysis at effector-to-target ratio of 15:1. Bars=SD. Statistically significant (P<0.05, two tailed t test).
To confirm the specificity and HLA-A2 restriction of CTL cytolysis, LNCaP cells were used as target in a cold target inhibition assay. […] Moreover, to determine whether the lysis was HLA-A2 restricted, antibody blocking experiments were carried out.

[6] = system: T2 cells; assay: 111In release assay: lysis of peptide-pulsed T2 targets by PAGE4-specific T-cell lines; assay type: cell-based; settings: for % lysis (±SD) by T-A-P16 / % lysis (±SD) by T-B-P16-1: 16-hour 111In release, peptide 12.5 μg/ml, IVS4
Protocol: Cytotoxic Assay: Cytotoxicity assays were used as described previously (Tsange et al., J Natl Cancer Inst 1995; 87:982-90). A 6-hour or 16-hour ^111In release assay was used to determine T-cell mediated killing. Target cells were labeled with ^111In oxine (Amersham Health, Silver Spring, Md.) for 20 min at room temperature, and used at 3×10^3 cells per well, in 96-well rounded-bottom culture plates. ^111In released was measured by gamma counting. Spontaneous release was determined by incubating the target cells with medium alone, and complete lysis by incubating the target cells with 2.5% Triton X-100. Specific lysis (%)=[(observed release−spontaneous release)/(complete release−spontaneous release)]×100.
To examine the ability of the P16 and P16-1 peptides to activate the PAGE4-specific T-cells, T-A-P16 cells were subsequently analyzed for the ability to lyse peptide-pulsed targets.

“KTPPNPKHA (XXPPNPKHX; (16)..(16) Xaa can be Gln or Tyr; listed as Homo sapiens) [Peptide P84]” was tested, and the “binding of native peptides to HLA-A2 molecules in the T2 assay” value ([1]; T2 assay) was “bound to HLA-A2 molecules”, the “T2 binding, mean fluorescence intensity” value ([1]; peptide 25 μg/ml) was 270 MFI and the “T2 binding, fold increase as compared with the negative control” value ([1]; peptide 25 μg/ml, vs CAP-7 negative control) was 1.04 fold.
In the case of “HLFGYSWYK [CAP-7 peptide, reference compound]”, the “T2 binding, mean fluorescence intensity” value ([1]; peptide 25 μg/ml) is reported as 260 MFI.
“P16-2: analogue of P16; amino acids 16 to 25 of SEQ ID NO: 1, X1 tyrosine, X2 leucine (YLAPDVVAFV; (16)..(16) Xaa can be Gln or Tyr; listed as Homo sapiens) [Peptide P16-2]” was tested, and the “binding to HLA-A2 compared with native peptides” value [1] was “higher levels” and the “stability of peptide-HLA-A2 complexes compared with native peptide complexes” value [2] was “more stable”.
With “P16-1: agonist analogue of P16; amino acids 16 to 25 of SEQ ID NO: 1, X1 glutamine, X2 leucine (QLAPDVVAFV; (16)..(16) Xaa can be Gln or Tyr; listed as Homo sapiens) [Peptide P16-1]” the “IFN-γ, lymphotactin, Granzyme B, TNF-α and IL-2 production by T-A-P16 cells” value [3] was “higher levels”, the “CD8+ T cells expressing surface CD107a compared with P16 native peptide” value [4] was “Higher number” and the “binding to HLA-A2 compared with native peptides” value [1] was “higher levels”. For the same substance, the “decrease in CTL activity of T-A-P16-1 cells against labeled LNCaP cells” value [5] was 79.6%, the “stability of peptide-HLA-A2 complexes compared with native peptide complexes” value [2] was “greater” and the “% lysis (±SD) by T-A-P16” value ([6]; effector T-A-P16, E:T 15:1) was 16.7 (0.9) %. The “% lysis (±SD) by T-A-P16” value ([6]; effector T-A-P16, E:T 30:1) was 20.4 (1.9) %, the “lysis of peptide-pulsed T2 cells by T-A-P16 compared with P16-pulsed T2 cells” value ([6]; effector T-A-P16, two E:T ratios) was “higher” and the “% lysis (±SD) by T-B-P16-1” value ([6]; effector T-B-P16-1, E:T 15:1) was 25.8 (0.6) %. For the same substance, the “% lysis (±SD) by T-B-P16-1” value ([6]; effector T-B-P16-1, E:T 30:1) was 34.7 (0.04) % and the “lysis of peptide-pulsed T2 cells by T-B-P16-1 compared with P16-pulsed T2 cells” value ([6]; effector T-B-P16-1, two E:T ratios) was “to a greater extent”.
For “P84-1: analogue of P84; amino acids 84-92 of SEQ ID NO: 1, X6 tyrosine, X7 leucine, X8 valine (YLPPNPKHV; (16)..(16) Xaa can be Gln or Tyr; listed as Homo sapiens) [Peptide P84-1]”, the “binding to HLA-A2 compared with native peptides” value [1] was “higher levels” and the “stability of peptide-HLA-A2 complexes compared with native peptide complexes” value [2] was “more stable”.
